Test results taken from US20110105577A1 (priority 2007, published 2011).

SMILES | Aflatoxin B1 [ppb] (Aspergillus flavus) | Aflatoxin B1 [ppb] (Aspergillus parasiticus)
CON=C(C(=O)OC)c1ccccc1CON=C(C)c1cccc(C(F)(F)F)c1 [Trifloxystrobin] | 375 | 9775
N#Cc1c[nH]cc1-c1cccc2c1OC(F)(F)O2 [Fludioxonil] | 1230 | 17390
OC(Cc1ccccc1Cl)(Cn1nc[nH]c1=S)C1(Cl)CC1 (centres unmarked) [Prothioconazole] | 865 | 37785
CC(C)(C)C(O)(CCc1ccc(Cl)cc1)Cn1cncn1 (centres unmarked) [Tebuconazole] | 2445 | 4545
